Measurements from patent US12624068B2, “Exon skipping by peptide nucleic acid derivatives” (OliPass Corporation, priority 2016, dated 2026).
[C(1O2)] = modified PNA monomer acting as cytosine, C(pOq) type, 1O2; [A(5)] = modified PNA monomer acting as adenine, A(p) type, p=5; {Fmoc} = N-terminal Fmoc cap; {NH2} = C-terminal amide

Assays:
complementary 10-mer DNA = test: Tm of 10-mer model PNA with complementary 10-mer DNA; type: binding; conditions: for Tm: 4 μM PNA and 4 μM complementary 10-mer DNA, aqueous buffer pH 7.16, uncorrected; for ΔTm (Tm value - Tm value of PNA 10-1): complementary 10-mer DNA
Method: (§1) The 10-mer PNA oligomers in Table 12 were evaluated for their binding affinity for the complementary 10-mer RNA or DNA by measuring Tm values as described below.
(§2) A mixed solution of 4 μM 10-mer PNA oligomer and 4 μM complementary 10-mer DNA or RNA in 4 mL aqueous buffer (pH 7.16, 10 mM sodium phosphate, 100 mM NaCl) in 15 mL polypropylene falcon tube was incubated at 90° C. for a minute and slowly cooled down to ambient temperature. Then the solution was transferred into a 4 mL quartz UV cuvette, and subjected to Tm measurement at 260 nm on a UV/Visible spectrophotometer as described in the prior art [PCT/KR2009/001256] or with minor modifications. The DNA and RNA for Tm measurement were purchased from Bioneer (www.bioneer.com, Dajeon, Republic of Korea) and used without further purification.

complementary 10-mer RNA = test: Tm of 10-mer model PNA with complementary 10-mer RNA; type: binding; conditions: for Tm: 4 μM PNA and 4 μM complementary 10-mer RNA, aqueous buffer pH 7.16, uncorrected; for ΔTm (Tm value - Tm value of PNA 10-1): complementary 10-mer RNA
Method: as §1, §2

mdx mice = test: Unscheduled death, sacrifice or lymphoma in chronically treated mdx mice; type: in vivo, mouse; conditions: DMD-ASO 1 50 pmole/Kg, DMD-ASO 2 or DMD-ASO 6 10 pmole/Kg, subcutaneous 2× per week, 66 weeks
Excerpt: [Grouping & ASO Treatment] Male mdx mice (7 weeks old) were randomly assigned to 4 groups of 0 (mdx negative control), 10, 50, and 200 pmole/Kg “DMD-ASO 1” based on individual grip strength scores by grip test. (N=12 per group) A satellite group of 12 male C57BL/6 mice (7 weeks old) was included in this study as the wild type negative control group for the full-length dystrophin expression level.
The 50 and 200 pmole/Kg group subcutaneously received “DMD-ASO 1” as dissolved in PBS, 2× per week until the final sacrifice in Week 43. In the meantime, the 10 pmole/Kg group subcutaneously received “DMD-ASO 1” initially 2× per week during Week 0 to 8, and 3× per week afterwards to increase the ASO exposure.
[Miscellaneous Findings] There were three cases of unscheduled sacrifice or death (Weeks 26, 39 and 43) in the mdx negative control group due to a large mass of muscular lymphoma developed most likely by chronic muscular inflammation.
“DMD-ASO 1”, “DMD-ASO 2” and “DMD-ASO 6” were evaluated for their physiological effects in male mdx mice by long term subcutaneous administration. In this evaluation the animals were not subjected to physical tests requiring muscular stress in order to keep the transcription of the dystrophin gene undisturbed by excessive muscular stimulation.
[Animals & Grouping] Male mdx mice (6 weeks old) were randomly assigned to 4 groups of the mdx negative control (no ASO treatment), “DMD-ASO 1” 50 pmole/Kg, “DMD-ASO 2” […], and “DMD-ASO 6” […] based on the body weight. (N=12-13 per group) 12 male C57BL/6 mice (6 weeks old) were adopted as the wild type (WT) negative control group.
[Injection Solutions & ASO Treatment] Aqueous mother stock solutions of the ASOs were serially diluted in PBS to prepare the injection solutions of 25 nM “DMD-ASO 1” for 50 pmole/Kg “DMD-ASO 1”, 5 nM “DMD-ASO 2” for “DMD-ASO 2” 10 pmole/Kg, and 5 nM “DMD-ASO 6” for “DMD-ASO 6” 10 pmole/Kg. The animals were subcutaneously administered with the injection solutions at 2 mL/Kg, 2× per week.

serum myoglobin = test: Serum myoglobin level in mdx mice; type: in vivo; conditions: DMD-ASO 1 50 pmole/Kg, DMD-ASO 2 or DMD-ASO 6 10 pmole/Kg, 2× per week, Week 66
Method: [Terminal Sacrifice] In Week 48, the animals were subjected to terminal sacrifice for blood sampling. The blood samples were analyzed for the serum level of CK (Creatine Kinase Activity Assay Kit, Cat. Number ab155901, Abcam) and myoglobin (Myoglobin ELISA Kit, Cat. Number ab210965, Abcam) to assess the degree of muscle degradation according to the manufacturer's instructions. Muscle tissues were analyzed by western blot for the full-length dystrophin.
[Terminal Sacrifice] All the survived animals were sacrificed for blood sampling in Week 66 post the grouping. The blood samples were subjected to ELISA assays for serum creatine kinase (CK) and serum myoglobin as described in “DMD Example 6”.

[1] = tested on: rats with diabetes-induced peripheral neuropathic pain (DPNP); test: Reversal of allodynia (von Frey) in rats with diabetes-induced peripheral neuropathic pain; type: in vivo, rat; conditions: 100 pmole/Kg subcutaneous in Days 11, 13, 15, 17 and 19
Method: “SCN-ASO 7”, “SCN-ASO 8”, “SCN-ASO 21”, “SCN-ASO 35”, “SCN-ASO 36” and “SCN-ASO 37” were evaluated for their ability to reverse the allodynia in rats with diabetes-induced peripheral neuropathic pain (DPNP). In this example, the six SCN9A ASOs targeting a total of five splice sites were evaluated for their ability to reverse the allodynia induced by diabetic neuropathy in rats.
[Induction of DPNP and Grouping] Diabetes was induced in rats by an intraperitoneal injection of streptozotocin at 60 mg/Kg in Day 0. In Day 10, rats with DPNP were randomly assigned to […] of negative control (vehicle only), “SCN-ASO 7” 100 pmole/Kg, “SCN-ASO 8” 100 pmole/Kg, “SCN-ASO 21” 100 pmole/Kg, “SCN-ASO 35” 100 pmole/Kg, “SCN-ASO 36” 100 pmole/Kg, and “SCN-ASO 37” 100 pmole/Kg. The animals were grouped based on the von Frey scores of individual animals in Day 10. (N=8-9 per group) Allodynia was scored using a set of microfilaments (Touch Test®) according to the “Up & Down” method. [J Neurosci. Methods vol 53(1), 55-63 (1994)]
[ASO Treatment and von Frey Scoring] ASO solutions for injection were prepared by serially diluting aqueous mother stock solutions of the SCN9A ASOs to 100 nM in PBS (phosphate buffered saline). Animals were subcutaneously administered with ASO at 1 mL/Kg in Days 11, 13, 15, 17 and 19. Von Frey scoring was carried out 2 hours post dose in Days 11, 13, 15, 17 and 19. Von Frey scoring was additionally performed in Days 21 and 23 in order to assess the duration of the therapeutic activity after the final dosing. Daily von Frey scores were evaluated for statistical significance by student's t-test against the negative control group (vehicle only, i.e., PBS).

10-mer complementary DNA = test: Tm between PNA derivatives and 10-mer complementary DNA (N- or C-terminal); type: binding; conditions: uncorrected
Method: as §2
PNA derivatives of Formula I were evaluated for their binding affinity for 10-mer DNAs complementarily targeting either the N-terminal or C-terminal. The binding affinity was assessed by the Tm value for the duplex between PNA and 10-mer complementary DNA. The duplex between PNA derivatives and DNAs of full complementarity usually show Tm values too high to be reliably determined in aqueous buffer solution. The aqueous buffer solution tends to boil off during Tm measurement.

[2] = tested on: sodium current in PC3 cells; test: CoroNa assay of sodium current in PC3 cells; type: cell-based, human; conditions: 30 hours
Method: Cellular sodium current is measured by patch clamp. As sodium ions enter cell, the intra-cellular sodium ion level increases. The intra-cellular sodium level can be probed using a sodium ion sensitive dye. “CoroNa Green” is a dye with a sodium ion chelator of crown ether type. Upon chelation with a sodium ion, “CoroNa Green” emits green fluorescence. “CoroNa Green” has been used to indirectly measure the intra-cellular sodium level. […] [Proc. Natl. Acad. Sci. USA vol 106(38), 16145-16150 (2009)]
PC3 cells are known to abundantly express the human SCN9A mRNA, although there are other SCN subtypes concomitantly expressed. [Br J. Pharmacol. vol 156, 420-431 (2009)] Thus an inhibition of SCN9A mRNA expression may lead to a considerable reduction of the sodium current in PC3 cells, if the sodium ion current by the Nav1.7 sodium channel subtype occupies a marked portion of the total sodium ion current in PC3 cells. It is note that the SCN9A mRNA encodes the Nav1.7 sodium channel subtype.
“SCN-ASO 7” was evaluated for its ability to inhibit the sodium ion current in PC3 cells using “CoroNa Green” as follows.
[ASO Treatment] PC3 cells grown in 35 mm culture dish containing 2 mL F-12K medium were treated with “SCN-ASO 7” at 0 zM (negative control), 100 zM or 1 aM.
[CoroNa Assay] 30 hours later, the cells were washed with 2 mL HBSS (Hank's Balanced Salt Solution, Cat. Number 14025-092, Life Technologies), and then charged with 2 mL fresh HBSS. Then the cells were treated with 5 μM “CoroNa Green” (Cat. Number C36676, Life Technologies) at 37° C. 30 min later, the cells were washed 2× with 2 mL HBSS, and charged with 2 mL fresh HBSS. The culture dish was mounted on an Olympus fluorescence microscope equipped with a digital video camera to continuously capture the green fluorescence images of the cells. The cells were acutely treated with 100 mM NaCl, and then the changes in fluorescence cellular images were digitally recorded over a period of 3 min. There were about 4 cells per frame on average. The fluorescence intensities from each individual cell were traced at the resolution of a second. The traces of the intracellular fluorescence intensities from individual cells were overlaid and averaged at each time point. The average of the traces from the individual cells of each ASO concentration were plotted as provided in FIG. 30A using ImageJ program (version 1.50i, NIH). The average fluorescence intensity trace was taken as the individual intra-cellular sodium concentration trace for the cells treated with “SCN-ASO 7” at 0 (negative control), 100 or 1,000 zM.
“SCN-ASO 3” was evaluated for its ability to inhibit the sodium current in PC3 cells using “CoroNa Green” according to the protocol described in “SCN9A Example 5”, unless noted otherwise.
“SCN-ASO 8” was evaluated for its ability to inhibit the sodium current in PC3 cells using “CoroNa Green” according to the protocol described in “SCN9A Example 3”, unless noted otherwise.

SCN9A mRNA = test: SCN9A nested qPCR by SYBR Green in PC3 cells; type: cell-based, human; conditions: PC3 cells, 24 hours
Method: “SCN-ASO 7” was evaluated for its ability to inhibit the expression of the human SCN9A mRNA in PC3 cells by qPCR against a set of exon-specific primers as follows. [Cell Culture & ASO Treatment] PC3 cells grown in 60 mm culture dish containing 5 mL culture medium were incubated with “SCN-ASO 7” for 24 hours at 0 (negative control), 10, 100 or 1,000 zM. (2 culture dishes per concentration) [RNA Extraction] […] [cDNA Synthesis by One Step RT-PCR] […] NO: 78); and SCN-exon 9_reverse: (5'→3') […] NO: 79)]. […] [Nested qPCR Amplification] […] NO: 80); SCN-exon 4_reverse: (5'→3') […] NO: 81); SCN-exon 5_forward: (5'→3') […] NO: 82); SCN-exon 5_reverse: (5'→3') […] NO: 83); SCN-exon 6_forward: (5'→3') […] NO: 84); SCN-exon 6_reverse: (5'→3') […] NO: 85)]. The PCR reactions were probed with SYBR Green (Takara, Japan). […] “SCN-ASO 3” was evaluated for its ability to inhibit the expression of the full-length SCN9A mRNA in PC3 cells according to the protocol described in “SCN9A Example 2”, unless noted otherwise. “SCN-ASO 8” was evaluated for its ability to inhibit the expression of the full-length SCN9A mRNA in PC3 cells according to the protocol described in “SCN9A Example 2”, unless noted otherwise.

Substance | Tm (complementary 10-mer DNA) | ΔTm (Tm value - Tm value of PNA 10-1) (complementary 10-mer DNA) | Tm (complementary 10-mer RNA) | ΔTm (Tm value - Tm value of PNA 10-1) (complementary 10-mer RNA) | further results
Fmoc-GTA(5)-GA(5)T-C(1O2)AC-T-NH2 (GTAGATCACT; all peptide nucleic acid (PNA), [A(5)] at 3, 5, [C(1O2)] at 7, 5' {Fmoc}, 3' {NH2}; model 10-mer peptide nucleic acid written N to C) [PNA 10-7] | 69 °C | +18 °C | 69 °C | +18 °C | –
Fmoc-GTA-GAT-CAC-T-NH2 (GTAGATCACT; all peptide nucleic acid (PNA), 5' {Fmoc}, 3' {NH2}; model 10-mer peptide nucleic acid written N to C) [PNA 10-1, reference compound] | 51 °C | – | 55 °C | – | –
Fethoc-C(12)TC-GG(6)C-TTA(6)-CC(1O2)T-GA(6)A-A(6)TT-NH2 (antisense CTCGGCTTACCTGAAATT; Fethoc N-cap, C-terminal amide, chemistry not fully specified) [DMD-ASO 6] | – | – | – | – | premature deaths (unscheduled death or sacrifice) (mdx mice): three premature deaths; serum myoglobin level smaller than the mdx negative control group by (serum myoglobin): 68%
Fmoc-TA(5)A-A(5)TA(5)-CGC(1O2)-AA(5)A-A(5)AC-A(5)A-NH2 (TAAATACGCAAAAACAA; chemistry not fully specified) [SCN-ASO 8] | – | – | – | – | maximum therapeutic efficacy based on the von Frey scores in Day 19 [1]: 61%; Tm Value, 10-mer DNA against C-Terminal (10-mer complementary DNA): 68.6 °C; Tm Value, 10-mer DNA against N-Terminal (10-mer complementary DNA): 74.0 °C; decrease of sodium current (CoroNa) ([2]; PC3 cells, 100 zM): 30%; decrease of sodium current / sodium channel activity (CoroNa) ([2]; PC3 cells, 1,000 zM): 31%; average cellular fluorescence intensity (CoroNa Green) ([2]; PC3 cells, 1,000 zM, at 100 sec after 100 mM NaCl): 89.7 arbitrary unit; decrease of expression levels of SCN9A exons 4-6 (SYBR Green) (SCN9A mRNA; 10 zM): 50-70%; decrease of expression levels of SCN9A exons 4-6 (SYBR Green) (SCN9A mRNA; 100 zM): 70-80%
Fmoc-GTA(5)-GA(5)T-CA(5)C-T-NH2 (GTAGATCACT; all peptide nucleic acid (PNA), [A(5)] at 3, 5, 8, 5' {Fmoc}, 3' {NH2}; model 10-mer peptide nucleic acid written N to C) [PNA 10-4] | 66 °C | +15 °C | 66 °C | +11 °C | –
